The structures appear in SMILES notation. Counter-ions that a name gives are not always drawn. Like-named read-outs stand apart in the source and are kept apart here. Some results are limits rather than exact numbers.

Data set [1] is described as follows: PK in rats, intravenous administration. Type of data set: in vivo. To be noted: male, Sprague-Dawley; for AUC / half-life: rat plasma; for clearance / Vd: plasma, rat; for Vd: read-out: Vdss. On the procedure:
(§1) Pharmacokinetic parameters were determined in male Sprague Dawley rats (Charles River, UK, 250-300 g; or Vital River Laboratory Animal Technology Co Ltd, Beijing, China, 7-9 weeks old). Animals were individually housed during the study and maintained under a 12 h light/dark cycle. Animals had free access to food and water, except that orally dosed animals were food deprived overnight prior to the study. For intravenous administration, compounds were formulated as a solution in DMSO:PBS [10:90] in 2 mL/kg dosing volume and administered via tail vein. For oral administration, compounds were formulated as a solution in DMSO:water [10:90] in 5 mL/kg dosing volume and administered orally. Serial blood samples (about 200-230 μL) were taken from each animal at each of 8 time-points post dose (0.083, 0.25, 0.5, 1, 2, 4, 8 and 24 h). Samples were held on ice for no longer than 30 minutes before centrifugation (10,000 rpm (8,385 g) for 3 minutes; or 5,696 rpm (3,000 g) for 15 minutes) for plasma generation. Plasma was frozen on dry ice prior to bioanalysis. PK parameters were generated from LC-MS/MS data using Dotmatics or Phoenix WinNonlin 6.3 software.

The target in data set [2] is T1, NLRP3 (Homo sapiens, UniProt Q96P20). Nature of the data set: THP-1 cells pyroptosis assay (LPS + nigericin, resazurin read-out). Type of data set: cell-based. Also on record: Seed THP-1 cells (25,000 cells/well) containing 1.0 μg/ml LPS; host or cells: THP-1 cells. To be noted: NLRP3 inhibitory activity, 1 μg/ml LPS, 5 μM nigericin. Summed up: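 THP-1 cells in serum-free RPMI were primed with 1 μg/ml LPS and incubated 3 h at 37° C with compound, then given 5 μM nigericin for 1 h. After supernatant removal, viability was read by 100 μM resazurin over 1-2 h at 37° C.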
T1 sequence (Q96P20 whole entry): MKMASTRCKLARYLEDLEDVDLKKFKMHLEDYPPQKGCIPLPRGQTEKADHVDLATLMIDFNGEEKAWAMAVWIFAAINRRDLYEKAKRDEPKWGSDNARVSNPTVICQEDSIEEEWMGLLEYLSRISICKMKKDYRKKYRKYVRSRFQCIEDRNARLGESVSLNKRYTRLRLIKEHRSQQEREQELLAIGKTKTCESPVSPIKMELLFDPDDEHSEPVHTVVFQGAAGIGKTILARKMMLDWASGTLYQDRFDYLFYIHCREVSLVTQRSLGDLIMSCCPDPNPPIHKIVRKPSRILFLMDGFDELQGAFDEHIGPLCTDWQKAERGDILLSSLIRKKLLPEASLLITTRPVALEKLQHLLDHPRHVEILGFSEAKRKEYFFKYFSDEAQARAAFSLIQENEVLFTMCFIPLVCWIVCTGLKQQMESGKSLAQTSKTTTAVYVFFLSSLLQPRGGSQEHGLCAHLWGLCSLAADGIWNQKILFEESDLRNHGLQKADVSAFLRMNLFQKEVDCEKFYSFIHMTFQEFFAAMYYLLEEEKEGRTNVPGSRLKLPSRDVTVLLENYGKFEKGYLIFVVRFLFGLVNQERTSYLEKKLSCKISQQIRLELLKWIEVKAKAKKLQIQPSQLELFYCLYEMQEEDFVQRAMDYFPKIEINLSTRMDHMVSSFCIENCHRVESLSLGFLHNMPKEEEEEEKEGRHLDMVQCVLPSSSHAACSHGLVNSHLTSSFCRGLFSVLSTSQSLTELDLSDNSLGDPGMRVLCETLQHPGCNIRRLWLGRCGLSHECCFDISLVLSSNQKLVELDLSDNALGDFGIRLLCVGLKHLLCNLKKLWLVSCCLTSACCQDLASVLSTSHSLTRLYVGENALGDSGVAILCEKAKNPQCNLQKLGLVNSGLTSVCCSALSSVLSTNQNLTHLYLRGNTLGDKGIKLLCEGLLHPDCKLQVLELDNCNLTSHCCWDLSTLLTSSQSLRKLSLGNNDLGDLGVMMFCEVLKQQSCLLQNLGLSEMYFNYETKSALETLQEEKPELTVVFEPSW
On the technique in general: The colour change of resazurin is a common sign of viable cells or microbes.

Data set [3] concerns the target T1, NLRP3. Briefly: Human whole blood IL-1β release assay (LPS + nigericin, AlphaLisa). Type of data set: cell-based. Also noted: Human whole blood in Li-heparin tubes was obtained from healthy donors; from tissue; host or cells: human whole blood from healthy donors. The note with it: NLRP3 inhibitory activity, 1 μg/ml LPS, 10 μM nigericin, read-out: HWB IC50. On the procedure: For systemic delivery, the ability to inhibit NLRP3 when the compounds are present within the bloodstream is of great importance. For this reason, the NLRP3 inhibitory activity of a number of compounds in human whole blood was investigated in accordance with the following protocol. Human whole blood in Li-heparin tubes was obtained from healthy donors from a volunteer donor panel. • 1. […] Incubate for 3 hrs at 37° C., 5% CO2 • 4. Add 10 μl nigericin (Sigma #N7143) (10 μM FAC) to all wells • 5. Incubate for 1 hr at 37° C., 5% CO2 • 6. At the end of the incubation period, spin plates at 300×g for 5 mins to pellet cells and remove 20 μl of supernatant and add to 96-well v-bottom plates for IL-1β analysis (note: these plates containing the supernatants can be stored at -80° C. to be analysed at a later date) • 7. IL-1β was measured according to the manufacturer protocol (Perkin Elmer-AlphaLisa IL-1 Kit A[…]-5000) • 8.
Background: Bead proximity is the source of the signal in Alpha formats.

Data set [4] in a line: PK in rats, oral administration. Format: in vivo. The note with it: male, Sprague-Dawley; for AUC / Cmax / Tmax / half-life: rat plasma; for CL/F / bioavailability: plasma, rat. The protocol:
as §1

Usually AUC stands for concentration integrated over time. A high value points to high exposure. As usually defined, the half-life is the time in which the quantity being followed falls by half. Read a low half-life as fast loss. One may read the clearance as the rate of elimination divided by the concentration. As a reminder, the IC50 is the concentration that gives 50% inhibition. As to `COC1(c2cc(S(=O)(=O)NC(=O)Nc3c4c(cc5c3CCC5)CCC4)nn2C)CCC1` [Example 51, N-((1,2,3,5,6,7-Hexahydro-s-indacen-4-yl)carbamoyl)-5-(1-methoxycyclobutyl)-1-methyl-1H-pyrazole-3-sulfonamide], in data set [1] (1 mg/kg), the AUC worked out at 4870 ng·h/mL, the half-life is 60 min, the clearance worked out at 3.4 mL/min/kg and the Vd was determined as 0.29 L/kg. The IC50 in data set [2] was < 250 nM. Also, in data set [3], the IC50 was 250 to 500 nM.

One may read the Cmax as the maximum level reached in the sampled fluid or tissue. A word on the Tmax: it is the time from dosing to the highest level. For orientation: CL/F means clearance divided by bioavailability, as obtained after extravascular dosing. For orientation: bioavailability means the share of a dose that reaches the circulation, judged against a reference dose that is usually intravenous. Regarding `COC(C)(C)c1cc(S(=O)(=O)NC(=O)Nc2c(C(C)C)cc(Cl)cc2C(C)C)nn1C` [Example 83, N-((4-Chloro-2,6-diisopropylphenyl)carbamoyl)-5-(2-methoxypropan-2-yl)-1-methyl-1H-pyrazole-3-sulfonamide], in data set [1] (1 mg/kg), the AUC stood at 1130 ng·h/mL, the half-life was 234 min, the clearance worked out at 14.8 mL/min/kg and the Vd was found to be 2.23 L/kg. Also, in data set [4] (1.3 mg/kg), the AUC stood at 2750 ng·h/mL, the concentration peaked (Cmax) at 468 ng/mL, the Tmax is 3.17 h and the half-life is 222 min. In data set [4] (1.3 mg/kg), the CL/F stood at 8.5 mL/min/kg and the bioavailability was > 100%. For the same compound, the IC50 in data set [2] was < 250 nM. Further, the IC50 in data set [3] is 1000 to 5000 nM.

On to `COC(C)(C)c1cc(S(=O)(=O)NC(=O)Nc2c3c(cc4c2CCC4)CCC3)nn1C` [Example 39, N-((1,2,3,5,6,7-Hexahydro-s-indacen-4-yl)carbamoyl)-5-(2-methoxypropan-2-yl)-1-methyl-1H-pyrazole-3-sulfonamide], for which, in data set [1] (3 mg/kg), the AUC stood at 3840 ng·h/mL, the half-life is 240 min, the clearance stood at 13.1 mL/min/kg and the Vd turned out to be 0.9 L/kg. For the same compound, in data set [4] (3 mg/kg), the AUC is 3920 ng·h/mL, the peak level (Cmax) was 1370 ng/mL, the Tmax was found to be 0.83 h and the half-life is 132 min. In data set [4] (3 mg/kg), the CL/F is 13 mL/min/kg and the bioavailability was > 100%. Further, in data set [2], the IC50 is < 250 nM. Moreover, the IC50 in data set [3] fell in the range of 500 to 1000 nM.

In the case of `CC(C)n1cnc(S(=O)(=O)NC(=O)Nc2c3c(cc4c2CCC4)CCC3)n1` [Example 46, N-((1,2,3,5,6,7-Hexahydro-s-indacen-4-yl)carbamoyl)-1-isopropyl-1H-1,2,4-triazole-3-sulfonamide, sodium salt], in data set [1] (1 mg/kg), the AUC came out at 10000 ng·h/mL, the half-life is 240 min, the clearance came out at 1.7 mL/min/kg and the Vd was 0.45 L/kg. Further, the IC50 in data set [2] is 250 to 500 nM. For the same compound, the IC50 in data set [3] lay within 500 to 1000 nM.

On to `Cc1cc(CN(C)C)cc(S(=O)(=O)NC(=O)Nc2c3c(cc4c2CCC4)CCC3)c1` [Example 57, 3-((Dimethylamino)methyl)-N-((1,2,3,5,6,7-hexahydro-s-indacen-4-yl)carbamoyl)-5-methylbenzenesulfonamide, sodium salt], for which the IC50 was < 250 nM in data set [2] and 1000 to 5000 nM in data set [3].

`CCn1ccc(S(=O)(=O)NC(=O)Nc2c3c(cc4c2CCC4)CCC3)n1` [Example 45, 1-Ethyl-N-((1,2,3,5,6,7-hexahydro-s-indacen-4-yl)carbamoyl)-1H-pyrazole-3-sulfonamide, sodium salt]: in data set [4] (3 mg/kg), the AUC was 61600 ng·h/mL, the Cmax is 7900 ng/mL, the Tmax amounted to 2 h and the half-life is 150 min. This compound had a CL/F in data set [4] (3 mg/kg) of 0.8 mL/min/kg. Also, the IC50 in data set [2] was < 250 nM. Also, the IC50 in data set [3] lay within 1000 to 5000 nM.

On to `CC(C)c1cc(Cl)cc(C(C)C)c1NC(=O)NS(=O)(=O)c1cnn(CC(F)(F)F)c1` [Example 40, N-((4-Chloro-2,6-diisopropylphenyl)carbamoyl)-1-(2,2,2-trifluoroethyl)-1H-pyrazole-4-sulfonamide], for which the IC50 in data set [2] fell in the range of 250 to 500 nM; in data set [3], 1000 to 5000 nM.

As for `CC(C)n1ccc(S(=O)(=O)NC(=O)Nc2c3c(c(F)c4c2CCC4)CCC3)n1` [Example 61, N-((8-Fluoro-1,2,3,5,6,7-hexahydro-s-indacen-4-yl)carbamoyl)-1-isopropyl-1H-pyrazole-3-sulfonamide, sodium salt], the figures for the IC50 in data set [2] and in data set [3] were < 250 nM and 500 to 1000 nM, respectively.

As to `CC(C)c1cccc(C(C)C)c1NC(=O)NS(=O)(=O)c1cnn(C(C)C)c1` [Example 69, N-((2,6-Diisopropylphenyl)carbamoyl)-1-isopropyl-1H-pyrazole-4-sulfonamide], the IC50 is 500 to 1000 nM in data set [2] and 1000 to 5000 nM in data set [3].

As to `O=C(Nc1c2c(cc3c1CCC3)CCC2)NS(=O)(=O)c1ccn(CC(F)(F)F)n1` [Example 42, N-((1,2,3,5,6,7-Hexahydro-s-indacen-4-yl)carbamoyl)-1-(2,2,2-trifluoroethyl)-1H-pyrazole-3-sulfonamide], the values for the IC50 in data set [2] and in data set [3] were < 250 nM and 1000 to 5000 nM, respectively.

As to `[2H]C([2H])([2H])N(CCn1ccc(S(=O)(=O)NC(=O)Nc2c3c(cc4c2CCC4)CCC3)n1)C([2H])([2H])[2H]` [Example 12, 1-(2-(Bis(methyl-d3)amino)ethyl)-N-((1,2,3,5,6,7-hexahydro-s-indacen-4-yl)carbamoyl)-1H-pyrazole-3-sulfonamide, potassium salt], the IC50 was < 250 nM in data set [2] and 500 to 1000 nM in data set [3].

Turning to `CC(C)n1ccc(S(=O)(=O)NC(=O)Nc2cc(Br)ccc2Sc2nnnn2C)n1` [Example 28, N-((5-Bromo-2-((1-methyl-1H-tetrazol-5-yl)thio)phenyl)carbamoyl)-1-isopropyl-1H-pyrazole-3-sulfonamide], the figures for the IC50 in data set [2] and in data set [3] were 1000 to 5000 nM and 5000 to 10000 nM, respectively.

With `COC(C)(C)c1cc(S(=O)(=O)NC(=O)Nc2c(C(C)C)cccc2C(C)C)nn1C` [Example 81, N-((2,6-Diisopropylphenyl)carbamoyl)-5-(2-methoxypropan-2-yl)-1-methyl-1H-pyrazole-3-sulfonamide], the IC50 in data set [2] and in data set [3] was 250 to 500 nM each time.

For the compound `CC(C)n1ccc(S(=O)(=O)NC(=O)Nc2c3c(cc4c2CCC4O)CCC3)n1` (stereo not shown) [Example 21, N-((1-Hydroxy-1,2,3,5,6,7-hexahydro-s-indacen-4-yl)carbamoyl)-1-isopropyl-1H-pyrazole-3-sulfonamide], the IC50 in data set [2] and in data set [3] was 5000 to 10000 nM each time.

For `COC(C)c1cc(S(=O)(=O)NC(=O)Nc2c3c(cc4c2CCC4)CCC3)nn1C` (stereo not shown) [Example 53, N-((1,2,3,5,6,7-Hexahydro-s-indacen-4-yl)carbamoyl)-5-(1-methoxyethyl)-1-methyl-1H-pyrazole-3-sulfonamide], the results for the IC50 in data set [2] and in data set [3] were < 250 nM and 500 to 1000 nM, respectively.

On to `[2H]C([2H])([2H])C([2H])(n1ccc(S(=O)(=O)NC(=O)Nc2c3c(cc4c2CCC4)CCC3)n1)C([2H])([2H])[2H]` [Example 20, N-((1,2,3,5,6,7-Hexahydro-s-indacen-4-yl)carbamoyl)-1-(propan-2-yl-d7)-1H-pyrazole-3-sulfonamide, potassium salt], for which, in data set [1] (1 mg/kg), the AUC came to 21600 ng·h/mL, the half-life is 282 min, the clearance amounted to 0.8 mL/min/kg and the Vd is 0.25 L/kg.

These data come from US20220106289A1, “NLRP3 INHIBITORS” (INFLAZOME LIMITED, priority 2018, published 2022).
